The assay has as its target T1, LK (R-selective alcohol dehydrogenase) (Lentilactobacillus kefiri, UniProt Q6WVP7).
T1 construct: gene adh; homo-tetramer; Mg2+ dependent; co-entrapped with FNR in porous ITO electrode
T1 sequence (Q6WVP7 1-252): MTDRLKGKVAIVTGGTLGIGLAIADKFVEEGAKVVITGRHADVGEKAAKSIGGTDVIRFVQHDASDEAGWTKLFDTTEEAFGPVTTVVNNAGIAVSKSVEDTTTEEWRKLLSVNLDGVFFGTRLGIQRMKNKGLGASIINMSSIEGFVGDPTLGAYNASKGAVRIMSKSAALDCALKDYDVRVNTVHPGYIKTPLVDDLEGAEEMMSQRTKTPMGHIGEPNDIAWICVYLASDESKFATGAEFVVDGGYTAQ
Kind of assay: chronoamperometry on FNR/ITO electrode, chiral GC. The class given is biochemical. Conditions: pH 9.0, 50 mM TAPS, 25 °C, 5 mM Mg2+, 20 uM NADP+; enzyme entrapped with FNR and W110V in ITO electrode.

On to `C[C@@H](O)CCc1ccccc1` [(R)-4-phenyl-2-butanol], for which the “chronoamperometry on FNR/ITO electrode, chiral GC” value is reported as “conversion of (R)-4-phenyl-2-butanol to 4-phenyl-2-butanone by LK”.
